# Results reported in patent US5783597A, “2,5-disubstituted thiophenes: inhibitors of 5-lipoxygenase and inducible cyclooxygenase (COX-2) enzymes, composition and use” (Ortho Pharmaceutical Corporation, priority 1997, dated 1998).
# Experiments:
# LTB4 production = assay: Ex vivo LTB4 production in peripheral (whole) blood of beagle dogs after oral dosing (Procedure IV)
# Experimental: (§1) Sterile perforated teflon chambers (wiffle golf balls) were surgically implanted subcutaneously in the dorsal neck fold of beagle dogs (8-13 kg, mixed sex). After a recovery period of 1 month, a 1 ml sample of fluid exudate from each dog was aspirated from within the chamber using a 1 ml syringe and 20 gauge 1 inch needle inserted through one of the perforations in the ball. Immediately after obtaining the sample, 1.5 ml of 0.33% sterile carrageenan lambda (Sigma Chemical Co., St. Louis, Mo.) was injected into the chamber. Dilutions of the baseline samples were made in saline and analyzed for leukocyte count using a Coulter Counter (6.08-50 μm range). The sample was also analyzed for concentrations of PGE2 and LTB4 by adding 200 μl of sample to 1 ml ethanol and centrifuging the precipitate (1,500 X g, 7 min). The supernatant was aspirated and stored at 0° C. until enzyme linked immunosorbant assays (ELISAs) were performed (ELISA Technologies, Lexington, Ky.). Samples were also drawn at 5 and 24 hours post carrageenan challenge and treated in a similar manner. […]
# (§2) Drug effects can be evaluated on several important aspects of inflammation using this in-vivo assay. […] Selectivity of a COX inhibitor can be determined by comparing PGE2 inhibition in peripheral blood (COX-1) to that of the inflammatory fluid exudate in the chamber (COX-2).
# LTB4 levels = assay: Carrageenan-induced inflammation in subcutaneous chambers in beagle dogs: LTB4 levels in fluid exudate (Procedure IV); assay type: in vivo; conditions: oral
# Experimental: (§3) Carrageenan-Induced Localized Inflammation In Subcutaneous Chambers Implanted In Beagle Dogs
# as §1, with “Ky.).” for “Ky.). Samples were also drawn at 5 and 24 hours post carrageenan challenge and treated in a similar manner.”
# as §2
# 5-lipoxygenase (5-LO) = target: T1, 5-lipoxygenase (5-LO) (Rattus norvegicus, UniProt P12527); assay: RBL-1 cell 5-lipoxygenase and cyclooxygenase - Homogenate (Procedure I); assay type: biochemical; conditions: RBL-1 homogenate supernatant, 5-HETE; read-out: Procedure I (5-LO) Homog. IC50
# T1 construct: endogenous in cells; host or cells: intact RBL-1 (rat basophilic leukemia) cells, stimulated with calcium ionophore A23187
# T1 sequence (P12527 1-673): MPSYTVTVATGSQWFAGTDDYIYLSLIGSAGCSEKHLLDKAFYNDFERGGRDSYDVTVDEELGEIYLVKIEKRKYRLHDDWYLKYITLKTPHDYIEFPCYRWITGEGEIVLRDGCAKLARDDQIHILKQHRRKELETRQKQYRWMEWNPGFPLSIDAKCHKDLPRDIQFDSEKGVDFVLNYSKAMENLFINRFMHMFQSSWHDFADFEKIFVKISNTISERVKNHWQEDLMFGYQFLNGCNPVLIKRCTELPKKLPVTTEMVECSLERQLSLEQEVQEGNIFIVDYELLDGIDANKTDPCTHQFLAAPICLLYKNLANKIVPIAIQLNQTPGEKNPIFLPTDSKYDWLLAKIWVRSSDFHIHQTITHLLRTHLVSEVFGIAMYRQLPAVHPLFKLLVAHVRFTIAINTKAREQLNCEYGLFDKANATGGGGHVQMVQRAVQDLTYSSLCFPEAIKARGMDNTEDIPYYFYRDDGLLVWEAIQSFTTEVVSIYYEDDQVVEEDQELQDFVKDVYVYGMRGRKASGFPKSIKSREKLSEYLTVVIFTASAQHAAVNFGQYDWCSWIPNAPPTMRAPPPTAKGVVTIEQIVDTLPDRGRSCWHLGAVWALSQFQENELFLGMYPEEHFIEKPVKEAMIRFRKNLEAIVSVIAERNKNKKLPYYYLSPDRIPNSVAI
# Experimental: RBL-1 cell 5-lipoxygenase and cyclooxugenase - Homogenate
# Rat basophilic leukemia cells (RBL-1; 5×10^7 viable cells/mL) were disrupted by homogenization on ice (four 20 sec bursts) with a Brinkman polytron. […] The homogenate was then centrifuged at 9,220×g for 48 minutes at 4° C. The pellet was discarded and the supernatant was saved as the source of enzymes. The supernatant was pre-incubated for five minutes at 37° C. in the presence of 2 mM of CaCl2 and compound or vehicle (1% DMSO). The conversion of AA into products by CO and LO was initiated by adding 10 μL (50 μCi) of 1-^14 C-AA to each tube and incubated at 37° C. for 20 minutes. The reaction was stopped by adjusting the pH of each sample to 3 to 3.5 with 2M formic acid. Samples were extracted with three volumes of chloroform to isolate the products of 5-LO formed during the reaction. Fractions were dried under nitrogen, then resuspended in 40 μL of chloroform and spotted onto silica gel HL plates. The plates were developed in A-9 solvent. The dried plates were analyzed using a Bioscan Imaging TLC scanner to determine the percentage of radiolabelled M converted to 5-HETE (LO product) and PGD2 (CO product) in each sample.
# [1] = test system: inflammatory cells (leukocyte influx); assay: Carrageenan-induced inflammation in subcutaneous chambers in beagle dogs: cellular (leukocyte) influx (Procedure IV); assay type: in vivo; conditions: oral
# Experimental: as §3
# as §1, with “Ky.).” for “Ky.). Samples were also drawn at 5 and 24 hours post carrageenan challenge and treated in a similar manner.”
# as §2
compound,measurement,setting,value
CS(=O)(=O)Nc1ccc(Oc2ccc(F)cc2)s1 [Example 1],ED50,"LTB4 production; Canis lupus familiaris, 5 h, five hours after oral administration, ex vivo, read-out: inhibition of peripheral LTB4 production, IC50",4.4 mg/kg
same,inhibition of LTB4 production in whole blood,"LTB4 production; at 24 hours following dosing, oral",No inhibition of LTB4 production in whole blood was detected
same,ED50,"LTB4 levels; Canis lupus familiaris, inflammatory chamber exudate, read-out: ED50 for inhibition of fluid LTB4 levels",< 0.01 mg/kg
same,inhibition of LTB4 levels measured in the fluid,LTB4 levels; inflammatory chambers,dose related inhibition
same,IC50,5-lipoxygenase (5-LO),130 nM
same,ED50,"[1]; Canis lupus familiaris, Leukocyte, inflammatory chamber exudate, read-out: ED50 for inhibition of cellular influx",< 0.01 mg/kg
same,inhibition of accumulation of inflammatory cells in the exudate,[1]; inflammatory chambers,dose related inhibition
